Assay results reported in patent EP4803080A1, “METHOD FOR TREATING LEUKEMIA” (Shenzhen TargetRx Co., Ltd., priority 2023, dated 2025).

Legend:
Test in all cases: Cell growth inhibitory activity test (CellTiter-Glo)
Type in all cases: cell-based
Details in all cases: Mus musculus, BaF3, 72 hours
Ba/F3 BCR-ABL1 E355G = tested on: Ba/F3 BCR-ABL1 E355G
From the text: (§1) The inhibitory effects of the compounds of the examples on the activity of Ba/F3 parental cells, Ba/F3 Bcr-Abl wild-type and mutant cells were detected.
(§2) This test used the Celltiter-Glo (CTG) kit (a homogeneous method for cell viability detection) provided by Promega to determine the cell viability of cultured cells by quantifying ATP. Ba/F3 parental cells were purchased from RIKEN BRC, catalog number RCB0805; other cells containing BCR-ABL1 wild-type and mutants were monoclonal engineered cell lines obtained by transfecting Ba/F3 parental cells with lentiviral plasmids containing WT or corresponding mutations of BCR-ABL1.
(§3) The steps for cell viability detection are as follows: • a) Collect cells in the logarithmic growth phase, prepare a cell suspension and count the cells to calculate the cell concentration. • b) After diluting the cell suspension to the desired concentration, add it to the inner wells of the 96-well plate, and add PBS to the edge wells. Wells containing only culture medium without cells serve as blank controls. • c) In addition to the cell plate used for compound analysis, prepare another 96-well plate as the T0 plate, adding 3-6 blank wells and 3-6 cell wells. Perform CTG assay the next day to measure cell viability, which serves as the T0 viability value for the cells. • d) Place the cell plate in a 37°C, 5% CO2 incubator and culture overnight. • e) The next day, add gradient-diluted compounds at various concentrations, and place the cell plate in a 37°C, 5% CO2 incubator for 72 hours.
(§4) The following nonlinear fitting formula was used to obtain the IC50 (half maximal inhibitory concentration) of the compounds: Y = Bottom + (Top−Bottom)/(1+10(LogIC50−X)∗HillSlope) [formula] • Y: Inhibition rate (%inhibition) • X: Logarithmic value of compound concentration • Top: Maximum response • Bottom: Baseline response • HillSlope: Slope of the curve

Ba/F3 BCR-ABL1 Y253H = tested on: Ba/F3 BCR-ABL1 Y253H
From the text: as §1, §2, §3, §4

Ba/F3 BCR-ABL1 P223S = tested on: Ba/F3 BCR-ABL1 P223S
From the text: as §1, §2, §3, §4

Ba/F3 BCR-ABL1 E459K = tested on: Ba/F3 BCR-ABL1 E459K
From the text: as §1, §2, §3, §4

Ba/F3 BCR-ABL1 G250E = tested on: Ba/F3 BCR-ABL1 G250E
From the text: as §1, §2, §3, §4

Ba/F3 BCR-ABL1 M351T = tested on: Ba/F3 BCR-ABL1 M351T
From the text: as §1, §2, §3, §4

Ba/F3 BCR-ABL1 H396P = tested on: Ba/F3 BCR-ABL1 H396P
From the text: as §1, §2, §3, §4

Ba/F3 BCR-ABL1 I502L = tested on: Ba/F3 BCR-ABL1 I502L
From the text: as §1, §2, §3, §4

Ba/F3 BCR-ABL1 E255K = tested on: Ba/F3 BCR-ABL1 E255K
From the text: as §1, §2, §3, §4

Ba/F3 BCR-ABL1 M244V = tested on: Ba/F3 BCR-ABL1 M244V
From the text: as §1, §2, §3, §4

Ba/F3 BCR-ABL1 V299L = tested on: Ba/F3 BCR-ABL1 V299L
From the text: as §1, §2, §3, §4

Ba/F3 BCR-ABL1 E255V = tested on: Ba/F3 BCR-ABL1 E255V
From the text: as §1, §2, §3, §4

Ba/F3 parental cells = tested on: Ba/F3 parental cells
From the text: as §1, §2, §3, §4

Ba/F3 BCR-ABL1 F317L = tested on: Ba/F3 BCR-ABL1 F317L
From the text: as §1, §2, §3, §4

Ba/F3 BCR-ABL1 F359V = tested on: Ba/F3 BCR-ABL1 F359V
From the text: as §1, §2, §3, §4

Ba/F3 BCR-ABL1 Q252H = tested on: Ba/F3 BCR-ABL1 Q252H
From the text: as §1, §2, §3, §4

O=C(Nc1ccc(OC(F)(F)Cl)cc1)c1cnc(N2CC[C@@H](F)C2)c(-c2cnccn2)c1 [Compound A, (R)-N-(4-(chlorodifluoromethoxy)phenyl)-6-(3-fluoropyrrolidin-1-yl)-5-(pyrazin-2-yl)nicotinamide]
IC50 (Ba/F3 BCR-ABL1 E355G): 52.6 ± 0.42 nM | IC50 (Ba/F3 BCR-ABL1 Y253H): 5.6 ± 0.53 nM | IC50 (Ba/F3 BCR-ABL1 P223S): 43.7 ± 4.88 nM | IC50 (Ba/F3 BCR-ABL1 E459K): 3.8 ± 0.22 nM | IC50 (Ba/F3 BCR-ABL1 G250E): 2.49 ± 0.18 nM | IC50 (Ba/F3 BCR-ABL1 M351T): 3.52 ± 0.5 nM | IC50 (Ba/F3 BCR-ABL1 H396P): 11.7 ± 0.28 nM | IC50 (Ba/F3 BCR-ABL1 I502L): 94.8 ± 1.06 nM | IC50 (Ba/F3 BCR-ABL1 E255K): 1.01 ± 0.08 nM | IC50 (Ba/F3 BCR-ABL1 M244V): 26.8 ± 2.26 nM | IC50 (Ba/F3 BCR-ABL1 V299L): 72.3 ± 5.87 nM | IC50 (Ba/F3 BCR-ABL1 E255V): 2.73 ± 0.02 nM | IC50 (Ba/F3 parental cells): 10000 nM | IC50 (Ba/F3 BCR-ABL1 F317L): 17.2 ± 0.99 nM | IC50 (Ba/F3 BCR-ABL1 F359V): 89.4 ± 8.91 nM | IC50 (Ba/F3 BCR-ABL1 Q252H): 2.38 ± 0.43 nM
